Key:
LHI-RC complex [1] = test system: T1, LHI-RC complex; assay: Long-term stability of LHI-RC complexes, absorbance ratio A875/A680 over 20-day incubation at room temperature; parameters: species or system Rhodobacter capsulatus; details: detergent at CMC+0.04 wt. %, room temperature
T1 construct: made in house; host or cells: Rhodobacter capsulatus U43[pUHTM86Bgl], intracytoplasmic membranes
Protocol: The favorable properties of CAO and DCAO in terms of membrane protein stabilization prompted further evaluation of these reagents' ability to stabilize protein superassemblies as a function of time. DDM-purified samples were diluted with solutions containing CAO or LDAO. […] Protein stability was monitored over time at room temperature by measuring absorbance ratios (A875/A680) (absorption at 680 nm arises from the oxidation of bacteriochlorophyll dissociated from LHI upon denaturation). […] Of note, DCAO was not evaluated in this long-term stability of the superassembly due to its high tendency to form a hydrogel at this high concentration.
R. capsulatus superassembly was purified in DDM according to the protocol described above. The DDM-purified sample was then diluted to the solutions containing individual detergents (CAO, CAO-1, DCAO, DCAO-2, DDM and LDAO). The dilution makes DDM concentration reached far below its CMC and the final individual detergent concentration at CMC+0.04 wt % or CMC+1.0 wt %. The spectra of individual detergents-solubilized LHI-RC complexes were taken in a range of 650 nm to 950 nm at regular intervals over 20 days during the incubation at room temperature. Protein integrity in each sample was assessed via changes in absorbance ratio (A875/A680) with time.
Similar criteria and protocols were used to judge the ability of amphiphiles to maintain solubilized and purified superassembly for extended periods. In this case, UV Vis-nearIR spectra were recorded at regular intervals. The degradation of the material could be monitored with the A875/A680 absorbance ratio, which decreased with time and sample integrity as the dominant 875 nm absorption of intact LHI disappeared and a 680 nm band appeared, indicating the presence of unbound, oxidized cofactors.

[2] = Water solubility and hydrogel formation of amphiphiles; type: physicochemical
Protocol: The amphiphiles prepared, except LDAO and DCAO, are water-soluble at up to 10 wt. %. […] DCAO was initially soluble, at approximately 1.0 wt. %, but tends to form a hydrogel over time at concentrations of greater than about 0.3 wt. %. Critical micelle concentration (CMC) values were estimated by using a hydrophobic fluorescent dye, diphenyhexatriene (DPH) (see Laible et al., Biochemistry 2003, 42, 1718-1730).
The CMC values were determined for CAO-1 (˜7.2 mM; ˜0.38 wt. %) and DCAO-2 (˜1.1 mM; ˜0.056 wt. %), which are similar to those of their parent compounds, CAO and DCAO, respectively (see Table 2.1 above). […] All of these cholate and deoxycholate-based agents preserved the native conformation of the superassembly during protein solubilization and purification processes.

[3] = Critical micelle concentration (CMC) estimated with hydrophobic fluorescent dye diphenylhexatriene (DPH); type: physicochemical
Description: The “Critical Micelle Concentration” (CMC) refers to the concentration of a detergent (e.g., an amphiphile as described herein) in an aqueous solution at which the detergent molecules self-assemble into micelles. Below the CMC, detergents are mostly monomeric; above the CMC, micelle concentration increases linearly with detergent concentration. The CMC is dependent upon many factors and is detergent-specific. The CMC of a detergent can be determined experimentally by measuring the solubilization of a water-insoluble dye or fluorophore while varying the concentration of detergent. A CMC may also be determined by measuring the diminution of the surface tension of an aqueous solution as a function of detergent concentration (CMCs determined by either method correlate with each other). The CMC is determined by extrapolating the plot of solubilization vs. concentration (or surface tension vs. concentration) in the two linear regions above and below the CMC. Where the two lines intersect is the CMC.
The Critical Micelle Concentrations (CMCs) of compounds of the invention can be determined by standard techniques known to those of skill in the art. For example, CMCs of CAO and DCAO can be determined by monitoring uptake of a fluorescent dye (e.g., a dye such as 1,6-diphenylhexatriene) with increasing detergent concentration, monitored by fluorescence spectroscopy.

LHI-RC complex [4] = test system: T1, LHI-RC complex; assay: Integrity of detergent-solubilized and Ni-NTA-purified LHI-RC complexes by UV-Vis absorption spectra; parameters: species or system Rhodobacter capsulatus; details: purified protein eluted at 1×CMC detergent
Description: The presence of various types of cofactors such as bacteriochlorophyll and carotenoids embedded in the complexes, thereby providing a well-featured UV-Vis absorption spectrum, facilitates the assessment of the protein integrity for a set of detergents via optical spectrophotometry. The native conformation of the protein is represented by a very strong peak at 875 nm in its absorption spectrum, while the intact RC but denatured LHI, or denatured LHI and RC, produce rather intense peaks at ˜800 nm and ˜760 nm, respectively.
(§1) These two reagents were chosen as control agents for the assay. For the superassembly solubilization, the intracytoplasmic R. capsulatus membranes enriched in LHI-RC complex were treated with 10×CMC individual new agents except DPA-2; DPA-2 was tested at 2×CMC based on its high CMC value. On the other hand, conventional detergents (LDAO and DDM) were used at 50×CMC due to the small CMC value in terms of wt. %. The solubilized protein portion and insolubilized part containing cellular debris and insolubilized membranes were separated via ultracentrifugation and isolated as the supernatant and pellet, respectively. The absorption spectra of these two portions were taken to assess detergents efficacy on the protein solubilization and stabilization.
For the purification, the detergent-solubilized protein samples were subjected to a metal affinity column chromatography and eluted with the elution buffer containing 1M imidazole and 1×CMC individual detergents. The UV-Visible spectra of the resulting protein samples were taken to investigate the integrity of detergent-purified LHI-RC complexes.
(§2) The solubilization and purification of the R. capsulatus superassembly were conducted according to the published protocol (Chae et al., ChemBioChem 2008, 9, 1706-1709). First, specialized photosynthetic membranes called intracytoplasmic membranes were obtained from an engineered strain of Rhodobacter (R.) capsulatus, U43[pUHTM86Bgl], lacking the light-harvesting complex II (LHII). The solubilization experiment began by thawing and homogenizing frozen aliquots of R. capsulatus membranes at room temperature. The solution was then incubated with mild agitation at 32° C. for 30 min. Subsequently, the solution was further incubated for 30 min after adding individual detergents (2×CMC for DPA-2, CAO and CAO-1, 10×CMC for DPA-1, […], DCAO and DCAO-2, 50×CMC for DDM and LDAO) into 1.0 mL solutions of R. capsulatus superassembly. The solution was then subjected to ultracentrifugation at 310,000 g at 4° C. for 30 min to remove membrane debris.
(§3) The spectra of solubilized supernatant and solubilized pellet were taken in a range from 650 nm to 950 nm after being homogenized. For the purification of the protein, detergent-solubilized samples were transferred into a new 1.7 mL microcentrifuge tube containing Ni-NTA resin (Qiagen, Inc.; Valencia, Calif.; pre-equilibriated and stored in an equal volume of buffer containing 10 mM Tris, pH 7.8, and 100 mM NaCl). Following one-hour incubation at 4° C. for protein binding, the resins were collected and washed twice with 0.5 mL of binding buffer (a pH 7.8 Tris solution containing DDM at 1×CMC). Purified protein solution were collected by eluting three times with 0.20 mL elution buffer solutions containing 1 M imidazole (otherwise, this buffer was identical to binding buffer; the pH of each solution was readjusted to pH=7.8) and diluted with 0.4 mL of the binding buffer to reach 1.0 mL solution. UV-Vis spectra of the superassembly purified in individual detergents were then taken to assess the stability of the protein.

LHI-RC complex [5] = test system: T1, LHI-RC complex; assay: Solubilization of LHI-RC complex from R. capsulatus intracytoplasmic membranes (pellet/supernatant absorbance spectra); parameters: species or system Rhodobacter capsulatus; details: for SY (%) Solubilization yield of LHI-RC complex from the membrane: 2×CMC for DPA-2, CAO, CAO-1, 10×CMC for other new agents, 50×CMC for DDM and LDAO, 32° C., 30 min
Protocol: as §1, §2, §3

[6] = estimated with DPH, Example 2, Table 2.1

T1 sequence (P11847 whole entry): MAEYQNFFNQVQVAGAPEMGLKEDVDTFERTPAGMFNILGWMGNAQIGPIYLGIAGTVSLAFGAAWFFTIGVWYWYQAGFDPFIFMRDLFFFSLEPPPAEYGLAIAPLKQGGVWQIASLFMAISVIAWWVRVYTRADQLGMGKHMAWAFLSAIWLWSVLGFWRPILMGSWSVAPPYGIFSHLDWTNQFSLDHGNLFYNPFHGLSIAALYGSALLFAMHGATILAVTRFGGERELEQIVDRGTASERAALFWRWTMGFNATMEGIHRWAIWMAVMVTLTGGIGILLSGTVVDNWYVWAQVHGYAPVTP
T1 sequence (P19057 whole entry, further chain): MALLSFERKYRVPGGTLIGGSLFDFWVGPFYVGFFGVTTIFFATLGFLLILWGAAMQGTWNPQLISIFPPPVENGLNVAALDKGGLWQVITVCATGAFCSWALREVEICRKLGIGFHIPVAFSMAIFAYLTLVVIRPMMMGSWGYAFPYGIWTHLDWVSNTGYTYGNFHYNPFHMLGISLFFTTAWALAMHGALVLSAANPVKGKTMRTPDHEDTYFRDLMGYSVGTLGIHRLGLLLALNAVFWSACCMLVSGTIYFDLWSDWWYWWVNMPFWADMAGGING
T1 sequence (P19056 whole entry, further chain): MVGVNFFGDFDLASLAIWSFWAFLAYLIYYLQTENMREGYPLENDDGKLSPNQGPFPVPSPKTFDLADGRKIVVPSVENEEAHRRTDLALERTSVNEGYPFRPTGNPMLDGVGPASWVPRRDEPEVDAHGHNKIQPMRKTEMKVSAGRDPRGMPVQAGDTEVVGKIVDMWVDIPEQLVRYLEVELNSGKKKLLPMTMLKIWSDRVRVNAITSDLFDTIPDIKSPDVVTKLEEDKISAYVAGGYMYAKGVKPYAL
T1 sequence (P02948 whole entry, further chain): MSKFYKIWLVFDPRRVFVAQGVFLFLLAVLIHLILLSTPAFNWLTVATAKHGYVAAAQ
T1 sequence (P02950 whole entry, further chain): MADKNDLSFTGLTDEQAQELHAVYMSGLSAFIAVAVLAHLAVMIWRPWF

| SMILES | long-term stability of superassembly (A875/A680), in words (LHI-RC complex [1]) | hydrogel formation (in words) [2] | concentration at which a hydrogel tends to form over time ([2]; in water) | water solubility ([2]; water-soluble at up to the stated concentration) | CMC fold lower than that of CHAPS or CHAPSO [3] | CMC ([3]; Example 3, Table 3-2) | CMC (%) ([3]; Example 3, Table 3-2) | CMC [3, 6] | CMC (wt. %) [3, 6] | native structure of LHI-RC complexes after solubilization and purification (in words) (LHI-RC complex [4]) | SY (%) Solubilization yield of LHI-RC complex from the membrane (LHI-RC complex [5]) | water solubility (in words) [2] | extraction/solubilization of LHI-RC complexes (in words) (LHI-RC complex [5]) |
| --- | --- | --- | --- | --- | --- | --- | --- | --- | --- | --- | --- | --- | --- |
| CC(CCC(=O)NCCC[N+](C)(C)[O-])C1CCC2C3CCC4CC(O)CCC4(C)C3CC(O)C12C (centres unmarked) [DCAO] | more stable than DDM-solubilized protein | did not form a hydrogel | greater than 0.3 wt. % | approximately 1.0 wt. % | approximately 8 fold | 1.0 mM | 0.049% | ~1.3 mM | ~0.064 wt. % | fully retained as effectively as DDM | ~70% | – | – |
| CCCCCCCCCCCC[N+](C)(C)[O-] [LDAO, lauryldimethylamine oxide, reference compound] | – | – | – | – | – | – | – | ~1.0 mM | ~0.023 wt. % | native protein conformation mostly destroyed | ~100% | insoluble in water | extracted the complexes almost quantitatively |

Reference: US9255122B2, “Cholate and deoxycholate-based amphiphiles for membrane protein manipulation” (Wisconsin Alumni Research Foundation, priority 2013, dated 2016)
